We go through two molecules from patent publication US20040138315A1 (priority 2000, published 2004).

Read-outs that look alike come from different tables or passages of the source.

For one data set, the target named is T1, cyclooxygenase COX-1 (Homo sapiens, UniProt P23219).
T1 construct: host or cells: human platelets
Description: Cyclooxygenase COX-1 inhibition in human platelets, PGE2 EIA (116010). It is filed as cell-based. Particulars: screened at 10 μM. The protocol:
(§1) In these assays, in addition to the designations set forth above, IG-05 refers to resorcinol and IG-06 refers to orcinol.
To assess COX-1 inhibition, test compound and/or vehicle was incubated with human platelets (5×10^7/well) for 15 minutes at5 37° C. Calcium ionophore A23187 (10 μM) was added to induce the arachidonic acid cascade. After another 15 minutes incubation at 37° C., PGE2 levels in the supernatant were quantiated using the Amersham EIA kit. Compounds were screened at 10 μM.

Data set [1] concerns the target T2, thromboxane A2 synthase (Oryctolagus cuniculus, UniProt G1TAZ9).
T2 sequence (G1TAZ9 1-530): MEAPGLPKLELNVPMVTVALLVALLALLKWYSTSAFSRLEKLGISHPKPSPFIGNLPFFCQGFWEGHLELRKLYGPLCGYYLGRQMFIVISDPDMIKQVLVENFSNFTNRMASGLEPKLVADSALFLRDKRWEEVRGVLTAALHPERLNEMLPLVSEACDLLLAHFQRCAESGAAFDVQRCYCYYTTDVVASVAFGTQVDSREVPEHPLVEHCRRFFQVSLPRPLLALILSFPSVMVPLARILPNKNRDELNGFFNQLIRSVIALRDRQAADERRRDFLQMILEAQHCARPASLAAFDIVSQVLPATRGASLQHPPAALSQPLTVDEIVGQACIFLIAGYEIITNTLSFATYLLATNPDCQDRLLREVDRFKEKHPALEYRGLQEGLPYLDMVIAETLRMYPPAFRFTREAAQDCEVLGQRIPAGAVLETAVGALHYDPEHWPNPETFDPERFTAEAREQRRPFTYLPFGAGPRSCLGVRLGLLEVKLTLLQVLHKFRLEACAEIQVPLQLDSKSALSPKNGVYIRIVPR
Description: Thromboxane A2 synthase inhibition, TXB2 radioimmunoassay (194000). It is filed as biochemical, rabbit. On the procedure: Test compounds (IG-1 through IG-11) were evaluated for their ability to inhibit cyclooxygenase COX-1, cyclooxygenase COX-2, and thromboxane synthase. In these assays, in addition to the designations set forth above, IG-05 refers to resorcinol and IG-06 refers to orcinol.
To assess Thromboxane A2 synthase, thromboxane A2 synthase isolated from a microsomal fraction of rabbit platelets by conventional centrifugation was used. The test compound and/or vehicle was incubated with 1:200 dilution of thromboxane A2 synthase and 5 ng prostaglandin G2 as substrate in Tris buffer pH 7.5 for 30 minutes at 37° C. The thromboxane A2 formed is immediately converted to thromboxane B2, which was quantitated by a radioimmunoassay. Compounds are screened at 100 μM.

The target in data set [2] is T3, cyclooxygenase-2 (human recombinant) (Homo sapiens, UniProt P35354).
T3 construct: 118010; host or cells: Spodoptera frugiperda (insect cells)
T3 sequence (P35354 18-604): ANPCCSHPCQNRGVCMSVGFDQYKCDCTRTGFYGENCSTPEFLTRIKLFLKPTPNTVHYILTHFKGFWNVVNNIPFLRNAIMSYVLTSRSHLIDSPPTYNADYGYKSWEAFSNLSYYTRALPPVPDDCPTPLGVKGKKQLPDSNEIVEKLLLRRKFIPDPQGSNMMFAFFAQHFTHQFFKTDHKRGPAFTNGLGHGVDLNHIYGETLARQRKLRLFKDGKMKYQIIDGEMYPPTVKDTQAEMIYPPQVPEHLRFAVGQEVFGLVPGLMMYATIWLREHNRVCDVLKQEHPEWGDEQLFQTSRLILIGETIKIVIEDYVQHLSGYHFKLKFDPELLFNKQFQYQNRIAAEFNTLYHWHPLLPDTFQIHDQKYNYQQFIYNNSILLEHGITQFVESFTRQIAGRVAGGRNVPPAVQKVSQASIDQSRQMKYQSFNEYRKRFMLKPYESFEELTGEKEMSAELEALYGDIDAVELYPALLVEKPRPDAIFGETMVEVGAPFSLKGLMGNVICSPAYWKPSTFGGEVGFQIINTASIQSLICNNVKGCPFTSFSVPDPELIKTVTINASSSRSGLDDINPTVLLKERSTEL
Description: Cyclooxygenase COX-2 inhibition, recombinant enzyme, PGE2 EIA (118010). Type of data set: biochemical. The note with it: screened at 10 μM. The protocol:
as §1
Following centrifugation, substrate conversion to PGE2 was measured by an Amersham EIA kit. Compounds are screened at 10 μM.

Data set [3] has as its system adenosine diphosphate-induced aggregation of platelet rich plasma (ADP receptor). Description: Adenosine diphosphate, platelet aggregation (404010). It is filed as cell-based, rabbit. Particulars: 30 μM, platelet rich plasma, rabbit. On the procedure: (§2) Test compounds referred to above were evaluated for inhibition of platelet aggregation induced by adenosine diphosphate, arachidonic acid, phorbol ester and Platelet Activating Factor (PAF) at […]. The following methods were employed in this analysis, and reference compounds for the respective assays are indicated in Appendix 1:
Venous blood obtained from male or female New Zealand derived albino rabbits weighing 2.5-3 kg was mixed with one-tenth volume of trisodium citrate (0.13 M) and centrifuged at room temperature for 10 min at 220 g. Test substance (30 EM)-induced aggregation of the supernatant platelet rich plasma by 50 percent or more (>50%) more relative to 1.2 μM adenosine diphosphate control response at 37° C. as mearsured by an optical aggregometer, indicates possible ADP receptor agonist activity.
At a test substance concentration where no significant agonist activity is seen, ability to reduce the adenosine diphosphate-induced maximum non-reversible aggregation response by 50 percent or more (≧50%) was indicative of ADP receptor antagonist activity.

Data set [4] concerns arachidonic acid-induced aggregation of platelet rich plasma. Description: Arachidonic acid, platelet aggregation (412510). Type of data set: cell-based, rabbit. Particulars: 30 μM, platelet rich plasma, rabbit. The protocol: as §2
Venous blood obtained from male or female New Zealand derived albino rabbits weighting 2.5-3 kg was mixed with one-tenth volume of trisodeium citrate (0.13M) and centrifuged at room temperature for 10 min at 220 g. Test substance (30 μM)-induced aggregation of the supernatant platelet rich plasma by 50 percent or more (≧50%) within 5 min, relative to 100 μM arachidonic acid response at 37° C. as measured by an optical aggregometer indicates possible agonist activity.
At a test substance concentration where no significant agonist activity is seen, ability to reduce the arachidonic acid-induced maximum non-reversible aggregation response by 50 percent or more (>50%) was indicative of antagonist activity.

Data set [5] relates to PAF-acether-induced aggregation of platelet rich plasma (PAF receptor). Kind of data set: PAF, platelet aggregation (463010). Type of data set: cell-based, rabbit. Particulars: 30 μM, platelet rich plasma, rabbit. On the procedure:
as §2
Venous blood obtained from male or female New Zealand derived albino rabbits weighing 2.5-3 kg is mixed with one-tenth volume of trisodium citrate (0.13 M) and centrifuged at room temperture for 10 min at 220 g. Test Substance (30 μM)-induced aggregation of the supernatant platelet rich plasma by 50 percent or more (≧50%) within 5 min, relative to control 5 nM platelet activating factor-acether (PAF-acether) response at 37[…] as measured by an optical aggregometer, indicates possible PAF receptor agonist activity.
At a test substance concentration where no significant agonist activity is seen, ability to reduce the PAF-acether-induced maximum non-reversible aggregation response by 50 percent or more (≧50%) indicates PAF receptor antagonist activity.

Data set [6] has as its system PMA-induced aggregation of platelet rich plasma (phorbol ester receptor). Description: Phorbol ester, platelet aggregation (461500). Type of data set: cell-based, rabbit. Particulars: 30 μM, platelet rich plasma, rabbit. On the procedure:
as §2
Venous blood obtained from male or female New Zealand derived albino rabbits weighing 2.5-3 kg is mixed with one-tenth volume of trisodium citrate (0.13 M) and centrifuged at room temperature for 10 min at 220 g. Test substance (30 μM)-induced aggregation of the supernatant platelet rich plasma by 50 percent or more (≧50%) within 5 min, relative to control phorbol myristate acetate (PMA, 0.5 μM) response at 37° C. as measured by an optical aggregometer, indicates possible phorbol ester receptor agonist activity.
At a test substance concentration where no significant agonist activity is seen, ability to reduce the PMA (0.5 μM)-induced maximum non-reversible aggregation response by 50 percent or more (>50%) indicates phorbol ester receptor antagonist activity.

Data set [7] deals with T2, thromboxane A2 synthase. Particulars: reference compound, historical; read-out: Historical IC50, Thromboxane Synthetase; cited from earlier work.

T1 sequence (P23219 24-599): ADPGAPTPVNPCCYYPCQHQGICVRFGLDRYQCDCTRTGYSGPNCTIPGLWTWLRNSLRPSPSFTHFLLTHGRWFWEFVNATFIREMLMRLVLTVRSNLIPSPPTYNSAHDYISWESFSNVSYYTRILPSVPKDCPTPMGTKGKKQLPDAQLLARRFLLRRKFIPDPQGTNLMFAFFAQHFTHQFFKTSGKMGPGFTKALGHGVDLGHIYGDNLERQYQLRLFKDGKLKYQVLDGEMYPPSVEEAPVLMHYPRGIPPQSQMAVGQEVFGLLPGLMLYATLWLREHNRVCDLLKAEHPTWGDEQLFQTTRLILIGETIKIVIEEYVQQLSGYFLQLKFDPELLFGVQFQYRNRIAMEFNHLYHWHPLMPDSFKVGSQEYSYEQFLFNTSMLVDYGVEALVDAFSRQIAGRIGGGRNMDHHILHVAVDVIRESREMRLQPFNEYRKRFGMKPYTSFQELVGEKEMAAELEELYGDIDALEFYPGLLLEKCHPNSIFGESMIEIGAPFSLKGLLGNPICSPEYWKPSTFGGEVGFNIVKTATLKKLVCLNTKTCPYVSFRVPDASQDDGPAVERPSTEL

Broadly, the melting point is the temperature of the solid-liquid transition. For the molecule `Cc1c(O)cc(C(C)(C)CCCC(C)C)cc1O` [IG-10, 2-Methyl-5-(1,1,5-trimethylhexyl)resorcinol], the melting point lay in the range of 145 to 147 °C. On cyclooxygenase COX-1, the “COX-1 inhibition (in words)” value is “potent inhibitors of COX-1”. In addition, the “Thromboxane synthase inhibition (in words)” value on thromboxane A2 synthase [1] (screened at 100 μM) is on record as “significantly inhibit thromboxane synthase”. Further, in data set [2], the “COX-2 inhibition (in words)” value is recorded as “not COX-2”. In data set [3], the “ANT. (antagonist response), ADP platelet aggregation” value is recorded as 17%. In addition, the “AG. (agonist response), ADP platelet aggregation” value in [3] (relative to […] ADP) is given as 0%. The “ANT. (antagonist response), arachidonic acid platelet aggregation” value in [4] is 100%. The “AG. (agonist response), arachidonic acid platelet aggregation” value in data set [4] (relative to 100 μM arachidonic acid) was 0%. In addition, in data set [5], the “ANT. (antagonist response), PAF platelet aggregation” value is 6%. Further, the “AG. (agonist response), PAF platelet aggregation” value in data set [5] (relative to 5 nM PAF-acether) is 0%. In addition, the “ANT. (antagonist response), phorbol ester platelet aggregation” value in data set [6] stood at 9%. The “AG. (agonist response), phorbol ester platelet aggregation” value in data set [6] (relative to PMA 0.5 μM) amounted to 0%.
The IC50 is the concentration at which inhibition is half-maximal. Turning to `O=C(O)c1ccc(OCCn2ccnc2)cc1` [Dazoxiben, reference compound], the IC50 at thromboxane A2 synthase [1] (reference compound, concurrent, read-out: Concurrent IC50, Thromboxane Synthetase) is 61 nM; at thromboxane A2 synthase [7] it was 22 nM.
